Assays:
Experiment in all cases: relative viability (nuclei count vs DMSO), 5 days (fraction); higher = more cells survive
[1] = system: NCI-H1666
In short: (§1)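 Cells from lung cancer lines were seeded into 1536-well plates and, one day later, dosed by pin tool. Treatments were either a single drug or a fixed dose of an anchor drug with five library-drug doses (not always all listed) in √10 steps. After 5 days, nuclei were stained in a one-step fixation (final 0.05% Triton X-100, 1% formaldehyde, 1 ug/ml Hoechst) and counted on 4× images, and relative viability is the treated-to-vehicle nuclei ratio, as the median of duplicate plates.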

[2] = system: NCI-H1915
In short: as §1

[3] = system: NCI-H460
In short: as §1

[4] = system: UMC-11
In short: as §1

[5] = system: LC-2-ad
In short: as §1

[6] = system: HCC-78
In short: as §1

[7] = system: NCI-H2170
In short: as §1

[8] = system: NCI-H1792
In short: as §1

[9] = system: NCI-H358
In short: as §1

[10] = system: NCI-H2085
In short: as §1

[11] = system: HOP-62
In short: as §1

[12] = system: LU99A
In short: as §1

[13] = system: A-427
In short: as §1

[14] = system: NCI-H1793
In short: as §1

[15] = system: EPLC-272H
In short: as §1

[16] = system: COR-L 105
In short: as §1

[17] = system: NCI-H1944
In short: as §1

[18] = system: NCI-H2009
In short: as §1

[19] = system: LXF-289
In short: as §1

[20] = system: SK-LU-1
In short: as §1

[21] = system: HCC-366
In short: as §1

## CCN(CC)CCCCNc1ncc2cc(-c3cc(OC)cc(OC)c3)c(NC(=O)NC(C)(C)C)nc2n1 + CS(=O)(=O)N1CCN(Cc2cc3nc(-c4cccc5[nH]ncc45)nc(N4CCOCC4)c3s2)CC1 [Pictilisib] (partner 1 µM)
[1]; first compound 0.01 µM
  relative viability: 0.363
[1]; first compound 0.03162 µM
  relative viability: 0.405
[1]; first compound 0.1 µM
  relative viability: 0.484
[1]; first compound 0.3162 µM
  relative viability: 0.595
[1]; first compound 1 µM
  relative viability: 0.367
[2]; first compound 0.01 µM
  relative viability: 0.998
[2]; first compound 0.03162 µM
  relative viability: 0.92
[2]; first compound 0.1 µM
  relative viability: 0.93
[2]; first compound 0.3162 µM
  relative viability: 1.03
[2]; first compound 1 µM
  relative viability: 0.915
[3]; first compound 0.01 µM
  relative viability: 0.311
[3]; first compound 0.03162 µM
  relative viability: 0.258
[3]; first compound 0.1 µM
  relative viability: 0.417
[3]; first compound 0.3162 µM
  relative viability: 0.382
[3]; first compound 1 µM
  relative viability: 0.395
[4]; first compound 0.01 µM
  relative viability: 0.85
[4]; first compound 0.03162 µM
  relative viability: 0.806
[4]; first compound 0.1 µM
  relative viability: 0.987
[4]; first compound 0.3162 µM
  relative viability: 0.989
[4]; first compound 1 µM
  relative viability: 0.752
[5]; first compound 0.01 µM
  relative viability: 0.481
[5]; first compound 0.03162 µM
  relative viability: 0.449
[5]; first compound 0.1 µM
  relative viability: 0.547
[5]; first compound 0.3162 µM
  relative viability: 0.544
[5]; first compound 1 µM
  relative viability: 0.392
[6]; first compound 0.03162 µM
  relative viability: 0.189
[6]; first compound 0.1 µM
  relative viability: 0.224
[6]; first compound 0.3162 µM
  relative viability: 0.218
[6]; first compound 1 µM
  relative viability: 0.185
[7]; first compound 0.01 µM
  relative viability: 0.326
[7]; first compound 0.03162 µM
  relative viability: 0.27
[7]; first compound 0.1 µM
  relative viability: 0.299
[7]; first compound 0.3162 µM
  relative viability: 0.317
[7]; first compound 1 µM
  relative viability: 0.322
[8]; first compound 0.01 µM
  relative viability: 0.249
[8]; first compound 0.03162 µM
  relative viability: 0.282
[8]; first compound 0.1 µM
  relative viability: 0.241
[8]; first compound 0.3162 µM
  relative viability: 0.265
[8]; first compound 1 µM
  relative viability: 0.225
[9]; first compound 0.01 µM
  relative viability: 0.353
[9]; first compound 0.03162 µM
  relative viability: 0.282
[9]; first compound 0.1 µM
  relative viability: 0.38
[9]; first compound 0.3162 µM
  relative viability: 0.35
[9]; first compound 1 µM
  relative viability: 0.3
[10]; first compound 0.01 µM
  relative viability: 0.432
[10]; first compound 0.03162 µM
  relative viability: 0.46
[10]; first compound 0.1 µM
  relative viability: 0.233
[10]; first compound 0.3162 µM
  relative viability: 0.512
[10]; first compound 1 µM
  relative viability: 0.46
[11]; first compound 0.01 µM
  relative viability: 0.732
[11]; first compound 0.03162 µM
  relative viability: 0.772
[11]; first compound 0.1 µM
  relative viability: 0.582
[11]; first compound 0.3162 µM
  relative viability: 0.747
[11]; first compound 1 µM
  relative viability: 0.985
[12]; first compound 0.01 µM
  relative viability: 0.31
[12]; first compound 0.03162 µM
  relative viability: 0.396
[12]; first compound 0.1 µM
  relative viability: 0.345
[12]; first compound 0.3162 µM
  relative viability: 0.313
[12]; first compound 1 µM
  relative viability: 0.277
[13]; first compound 0.01 µM
  relative viability: 0.704
[13]; first compound 0.03162 µM
  relative viability: 0.657
[13]; first compound 0.1 µM
  relative viability: 0.769
[13]; first compound 0.3162 µM
  relative viability: 0.671
[13]; first compound 1 µM
  relative viability: 0.353
[14]; first compound 0.01 µM
  relative viability: 0.286
[14]; first compound 0.1 µM
  relative viability: 0.322
[14]; first compound 0.3162 µM
  relative viability: 0.233
[14]; first compound 1 µM
  relative viability: 0.224
[15]; first compound 0.01 µM
  relative viability: 0.288
[15]; first compound 0.1 µM
  relative viability: 0.33
[15]; first compound 0.3162 µM
  relative viability: 0.298
[15]; first compound 1 µM
  relative viability: 0.184
[16]; first compound 0.01 µM
  relative viability: 0.368
[16]; first compound 0.03162 µM
  relative viability: 0.394
[16]; first compound 0.1 µM
  relative viability: 0.418
[16]; first compound 0.3162 µM
  relative viability: 0.445
[16]; first compound 1 µM
  relative viability: 0.392
[17]; first compound 0.01 µM
  relative viability: 0.362
[17]; first compound 0.03162 µM
  relative viability: 0.327
[17]; first compound 0.1 µM
  relative viability: 0.367
[17]; first compound 0.3162 µM
  relative viability: 0.352
[17]; first compound 1 µM
  relative viability: 0.341
[18]; first compound 0.01 µM
  relative viability: 0.727
[18]; first compound 0.03162 µM
  relative viability: 0.79
[18]; first compound 0.1 µM
  relative viability: 0.824
[18]; first compound 0.3162 µM
  relative viability: 0.965
[18]; first compound 1 µM
  relative viability: 0.815
[19]; first compound 0.01 µM
  relative viability: 0.769
[19]; first compound 0.03162 µM
  relative viability: 0.874
[19]; first compound 0.1 µM
  relative viability: 0.792
[19]; first compound 0.3162 µM
  relative viability: 0.676
[19]; first compound 1 µM
  relative viability: 0.386
[20]; first compound 0.01 µM
  relative viability: 0.483
[20]; first compound 0.03162 µM
  relative viability: 0.427
[20]; first compound 0.1 µM
  relative viability: 0.526
[20]; first compound 0.3162 µM
  relative viability: 0.527
[20]; first compound 1 µM
  relative viability: 0.393
[21]; first compound 0.01 µM
  relative viability: 0.102
[21]; first compound 0.03162 µM
  relative viability: 0.177
[21]; first compound 0.1 µM
  relative viability: 0.207
[21]; first compound 0.3162 µM
  relative viability: 0.164
[21]; first compound 1 µM
  relative viability: 0.176

Source: the supplement of paper PMC10307832
